Assay results reported in ChEMBL document CHEMBL1130738, “Rational design of boropeptide thrombin inhibitors: beta, beta-dialkyl-phenethylglycine P2 analogs of DuP 714 with greater selectivity over complement factor I and an improved safety profile” (Bioorg Med Chem Lett, 1998).
Activity calls are given as the source filed them. No cut-off for these calls is given here.

Experiments:
Prothrombin = Prothrombin (Homo sapiens, UniProt P00734); assay: Binding affinity towards thrombin was tested.
Coagulation factor X = Coagulation factor X (Homo sapiens, UniProt P00742); assay: Binding affinity towards coagulation factor Xa.
Chain of Coagulation factor X (P00742 41-179 limits assumed): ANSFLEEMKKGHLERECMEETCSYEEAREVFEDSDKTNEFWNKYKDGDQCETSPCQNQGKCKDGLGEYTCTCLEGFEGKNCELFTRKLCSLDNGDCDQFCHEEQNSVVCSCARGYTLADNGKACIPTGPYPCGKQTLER
Chain of Coagulation factor X (P00742 235-488 limits assumed): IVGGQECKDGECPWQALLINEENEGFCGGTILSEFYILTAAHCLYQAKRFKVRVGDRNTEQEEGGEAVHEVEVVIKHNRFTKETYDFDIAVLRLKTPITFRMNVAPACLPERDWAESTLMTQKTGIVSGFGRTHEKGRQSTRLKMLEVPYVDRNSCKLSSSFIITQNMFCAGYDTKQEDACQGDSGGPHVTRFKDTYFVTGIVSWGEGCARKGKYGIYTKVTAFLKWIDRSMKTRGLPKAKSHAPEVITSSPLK

[1] = Inhibition of Coagulation factor I.
[2] = biological target: Thrombin and coagulation factor X (Homo sapiens) (UniProt P00734+P00742); assay: Selectivity ratio for binding to factor Xa (Ki) and thrombin (Ki); assay type: protein assay
Chain of Thrombin and coagulation factor X (Homo sapiens) (P00742 whole entry, looked up, other chains not shown): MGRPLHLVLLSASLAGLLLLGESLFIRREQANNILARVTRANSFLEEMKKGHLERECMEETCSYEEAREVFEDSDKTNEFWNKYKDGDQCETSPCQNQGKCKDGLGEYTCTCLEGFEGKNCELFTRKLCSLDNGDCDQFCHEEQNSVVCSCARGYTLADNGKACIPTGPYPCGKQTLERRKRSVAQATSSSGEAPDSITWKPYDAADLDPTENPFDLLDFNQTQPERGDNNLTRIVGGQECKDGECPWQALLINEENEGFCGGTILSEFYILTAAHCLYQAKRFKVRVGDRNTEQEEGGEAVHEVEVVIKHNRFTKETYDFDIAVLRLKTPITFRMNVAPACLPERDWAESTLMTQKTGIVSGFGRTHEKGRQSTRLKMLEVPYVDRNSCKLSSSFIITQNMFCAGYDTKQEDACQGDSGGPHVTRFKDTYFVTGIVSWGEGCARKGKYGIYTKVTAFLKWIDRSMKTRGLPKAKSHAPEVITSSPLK

Rattus norvegicus [3] = assay: Alanine transaminase level was measured in rats after administration intravenously at a dose(bolus) of 20 umol/kg; assay type: functional, organism-based; design: unit not given here
[4] = Selectivity ratio for binding to factor I (IC50) and thrombin (Ki)
Rattus norvegicus [5] = assay: Effect of factor I selectivity on hypotension was evaluated in rats after administration intravenously at a dose(bolus) of 2 umol/kg; assay type: functional
Rattus norvegicus [6] = assay: Effect of factor I selectivity on hypotension was evaluated in rats after administration intravenously at a dose(bolus) of 20umol/Kg, activity expressed as drop in blood pressure; assay type: functional
Rattus norvegicus [7] = assay: Effect of factor I selectivity on hypotension was evaluated in rats after administration intravenously at a dose(bolus) of 20umol/Kg, activity expressed as drop in blood pressure; No effect; assay type: functional, organism-based

Ki (Prothrombin) | Ki (Coagulation factor X) | IC50 [1] | Ratio [2] | Level (Rattus norvegicus [3]) | Ratio [4] | SMILES | BP (Rattus norvegicus [5]) | BP (Rattus norvegicus [6]) | BP (Rattus norvegicus [7])
0.06 nM | 99 nM | – | – | – | – | CC(C)(CN(CC(=O)NC(CCCNC(=N)N)B(O)O)C(=O)CCc1ccccc1)c1ccccc1 (stereo unspecified) | – | – | –
0.83 nM | 300 nM | – | – | – | – | N=CNCCCC(NC(=O)CN(CC1(c2ccccc2)CC1)C(=O)CCc1ccccc1)B(O)O (stereo unspecified) | – | – | –
0.42 nM | 130 nM | 1500 nM | 310 | 60 | 3570 | NCCCCC(NC(=O)CN(CCc1ccccc1)C(=O)CCc1ccccc1)B(O)O (stereo unspecified) | – | – | –
– | – | 2730 nM | 25 | 55 | 3070 | N/C=N/CCCC(NC(=O)CN(CCc1ccccc1)C(=O)CCc1ccccc1)B(O)O (stereo unspecified) | – | – | –
0.89 nM | 22 nM | – | – | – | – | N=CNCCCC(NC(=O)CN(CCc1ccccc1)C(=O)CCc1ccccc1)B(O)O (stereo unspecified) | – | – | –
0.58 nM | 15 nM | – | – | – | – | Cc1cc(C)cc(CCN(CC(=O)NC(CCCNC(=N)N)B(O)O)C(=O)CCc2ccccc2)c1 (stereo unspecified) | – | – | –
– | – | 7700 nM | 361 | 66 | 9280 | N/C=N/CCCC(NC(=O)CN(CC1(c2ccccc2)CC1)C(=O)CCc1ccccc1)B(O)O (stereo unspecified) | – | – | –
2.4 nM | 1390 nM | 19000 nM | 579 | 66 | 7920 | NCCCCC(NC(=O)CN(CC1(c2ccccc2)CCCC1)C(=O)CCc1ccccc1)B(O)O (stereo unspecified) | – | – | –
– | – | 10 nM | – | – | – | CC(=O)N[C@H](Cc1ccccc1)C(=O)N1CCC[C@H]1C(=O)N[C@@H](CCCN=C(N)N)B(O)O.Cl | >40 mmHg | – | –
0.37 nM | 30 nM | – | – | – | – | Cc1cc(C)cc(CCN(CC(=O)NC(CCCNC=N)B(O)O)C(=O)CCc2ccccc2)c1 (stereo unspecified) | – | – | –
0.3 nM | 62 nM | 320 nM | 207 | – | 1070 | Cc1cc(C)cc(C(C)(C)CN(CC(=O)NC(CCCN=C(N)N)B(O)O)C(=O)CCc2ccccc2)c1 (stereo unspecified) | – | – | –
– | – | 130 nM | 1650 | 211 | 2170 | CC(C)(CN(CC(=O)NC(CCCN=C(N)N)B(O)O)C(=O)CCc1ccccc1)c1ccccc1 (stereo unspecified) | – | >40 mmHg | –
0.53 nM | 392 nM | 2390 nM | 740 | 70 | 4510 | Cc1cc(C)cc(C(C)(C)CN(CC(=O)NC(CCC/N=C/N)B(O)O)C(=O)CCc2ccccc2)c1 (stereo unspecified) | – | – | –
– | – | 6900 nM | 67 | 70 | 5750 | CC(C)(CN(CC(=O)NC(CCC/N=C/N)B(O)O)C(=O)CCc1ccccc1)c1ccccc1 (stereo unspecified) | – | – | –
0.28 nM | 54 nM | 170 nM | 193 | – | 607 | Cc1cc(C)cc(CCN(CC(=O)NC(CCCCN)B(O)O)C(=O)CCc2ccccc2)c1 (stereo unspecified) | – | – | –
0.43 nM | 438 nM | 4300 nM | 1020 | 60 | 10000 | NCCCCC(NC(=O)CN(CC1(c2ccccc2)CC1)C(=O)CCc1ccccc1)B(O)O (stereo unspecified) | – | – | –
3 nM | 630 nM | – | – | – | – | N=CNCCCC(NC(=O)CN(CC1(c2ccccc2)CCCC1)C(=O)CCc1ccccc1)B(O)O (stereo unspecified) | – | – | –
– | – | < 40 nM | 26 | – | < 69 | Cc1cc(C)cc(CCN(CC(=O)NC(CCCN=C(N)N)B(O)O)C(=O)CCc2ccccc2)c1 (stereo unspecified) | – | – | –
0.06 nM | 46 nM | 540 nM | 767 | 89 | 9000 | N=C(N)NCCCC(NC(=O)CN(CC1(c2ccccc2)CC1)C(=O)CCc1ccccc1)B(O)O (stereo unspecified) | – | – | inactive
– | – | > 50000 nM | 210 | 60 | > 16700 | N/C=N/CCCC(NC(=O)CN(CC1(c2ccccc2)CCCC1)C(=O)CCc1ccccc1)B(O)O (stereo unspecified) | – | – | –
0.36 nM | 320 nM | 1300 nM | 889 | 53 | 3610 | CC(C)(CN(CC(=O)NC(CCCCN)B(O)O)C(=O)CCc1ccccc1)c1ccccc1 (stereo unspecified) | – | – | –
– | – | 400 nM | 81 | – | 1080 | Cc1cc(C)cc(CCN(CC(=O)NC(CCC/N=C/N)B(O)O)C(=O)CCc2ccccc2)c1 (stereo unspecified) | – | – | –
0.41 nM | 810 nM | 2450 nM | 1980 | 78 | 5980 | Cc1cc(C)cc(C(C)(C)CN(CC(=O)NC(CCCCN)B(O)O)C(=O)CCc2ccccc2)c1 (stereo unspecified) | – | – | –
1.2 nM | 80 nM | – | – | – | – | CC(C)(CN(CC(=O)NC(CCCNC=N)B(O)O)C(=O)CCc1ccccc1)c1ccccc1 (stereo unspecified) | – | – | –
